# Measured values from patent US20260207626A1, “SYNTHETIC TRITERPENOIDS AND COMPOSITIONS THEREOF IN WEIGHT MANAGEMENT, SKELETAL MUSCLE FUNCTION, AND APPETITE SUPPRESSION” (The Board of Regents of the University of Texas System, priority 2022, published 2026).
# “Also recorded” adds a separate entry of the source. Marks after values point to notes of the source that are not given here.
# What was measured:
# [1] = Chow consumption / energy intake of mice fed LFD or HFD with or without CDDO-EA; assay type: in vivo, C57B16/J mice
# Description: To assess the protective effects of CDDO-EA from obesity and insulin resistance, C57B16/J mice (6-8 weeks old, male, strain #000664, The Jackson Laboratory) were used. The animals were fed a Low Fat diet (LFD) (10% total calories from fat, […]) or a High Fat diet (HFD) (60% of total calories from fat) incorporated with or without CDDO-EA (chow containing 0.04% CDDO-EA) for six weeks.
# Energy intake was also measured. Energy intake is determined as a measure of the amount of food consumed by a subject (such as a subject mouse). […] Thus CDDO-EA protects from development of HFD-induced obesity in vivo.
# The mice were maintained on one of the 4 food regiment schedules as defined in Example 2. The amount of food consumed by an animal was monitored weekly.
# THP-1 macrophages = test: Bio-Plex Pro human 17-plex cytokine/chemokine panel in THP-1 macrophages exposed to CDDO-EA and LPS; assay type: cell-based
# Description: THP-1 monocytes were plated in 24-well plate at 15×10^4 cells/0.5 ml/well in growth medium plus 100 ng/ml PMA into each well and cultured at 37° C. with 5% CO2 incubator for 48 h for differentiation to macrophages. […] Supernatants were collected and stored at −80° C. until analysis. Cytokines and chemokines were measured and quantified using a Bio-Plex Pro human cytokines group I, 17-plex ELISA Kit (Bio-Rad) according to the manufacturer's instructions.
# MCP-1 = test: LPS-induced MCP-1 ELISA in RAW264.7 macrophages (CDDO-EA batches); assay type: cell-based, mouse; settings: RAW264.7, 500 nM 1 hour then 100 ng/ml LPS 6 hr
# Description: Macrophages were pre-treated with 500 nM CDDO-EA #1 or 500 nM CDDO-EA #2, for 1 hour. The microphages were then stimulated with 100 ng/ml of lipopolysaccharide (LPS) for 6 hr. Supernatants were collected from each culture. An enzyme linked immunoassay (ELISA) was performed to detect levels of the pro-inflammatory protein, monocyte chemotactic protein-1 (MCP-1). The macrophages were also treated with LPS alone or with CDDO-EA alone. A control (no treatment) group was also included in the study.
# The second batch of CDDO-EA was tested for its biological property of anti-inflammatory activity. As with the first batch of CDDO-EA, this was tested by using the mouse macrophage cell line RAW264.7. RAW264.7 macrophages were pre-treated with 500 nM CDDO-EA for 1 hour then stimulated with 100 ng/ml of lipopolysaccharide (LPS) for 6 hr. Supernatants were collected, and an enzyme linked immunoassay (ELISA) was performed to detect the pro-inflammatory protein, monocyte chemotactic protein-1 (MCP-1). The macrophages were also treated with LPS alone or with CDDO-EA alone. A control (no treatment) group was also included in the study. […] This suppression of MCP-1 production by the second batch CDDO-EA is similar to that observed for the first batch of CDDO-EA. (See FIG. 21).
# [2] = Food intake in mice fed HFD with or without CDDO-EA, LFD or HFD pair-fed; assay type: in vivo, C57BL/6J mice; settings: HFD + CDDO-EA (0.04%) vs ad libitum HFD
# Description: C57BL/6J mice were fed a HFD with or without incorporation of CDDO-EA (diet containing 0.04% CDDO-EA) or LFD or HFD pair-fed for 6 weeks (n=5). Food intake data points in week 1 are not recorded when mice were in the Prometheion. Data are represented as mean±SEM (Two-way Repeated Measures ANOVA). *p<0.05; **p<0.01 vs. HFD pair-fed; ? p<0.01 vs. HFD+CDDO-EA; ##p<0.01 vs. LFD ad lib.
# C57BL/6J mice (6-8 weeks old, male, strain #000664, The Jackson Laboratory) were divided into four (4) groups (i)-(iv)): (i) ad libitum Low fat caloric content (LFD-10% of total calories from fat caloric content, #TD.08806, Envigo), (ii) ad libitum HFD (60% of total calories from fat caloric content, #TD.06414, Envigo), (iii) HFD+CDDO-EA (diet containing 0.04% CDDO-EA), and (iv) HFD pair-fed to food intake of mice fed HFD+CDDO-EA. The study was for 6 weeks (42 days) (performed at Vanderbilt Metabolic Mouse Phenotyping Center (VMMPC)). Mice were singly housed in a Promethion Metabolic Analyzer and were monitored continuously for 7 days to assess feeding and EE.
# [3] = OGTT and fasting glucose at week 6 with pair-fed group; assay type: in vivo, C57BL/6J mice
# Description: FIG. 25—OGTT Area Under the Curve. Oral GTT performed at week 6 of experimental feeding, and mice were dosed on lean mass (2 g/kg lean mass). C57BL/6J mice were fed a HFD with or without incorporation of CDDO-EA (diet containing 0.04% CDDO-EA) or LFD or HFD pair-fed for 6 weeks (n=5). Data are represented as mean±SEM (One-way ANOVA).
# Fasting glucose levels were measured at day 42 of experimental feeding. C57BL/6J mice were fed a HFD with or without incorporation of CDDO-EA (diet containing 0.04% CDDO-EA) or a LFD or were HFD pair-fed for 6 weeks (n=5). Data are represented as mean±SEM (One-way ANOVA).
# To determine the answer to this question, a pair-fed/weight-matched group was included in the study. OGTT was performed at end of the 6-week study.
# [4] = 500 nM CDDO-EA for 1 hr then 100 ng/ml LPS for 6 hr
smiles,measurement,setting,value
"CCNC(=O)[C@]12CCC(C)(C)C[C@H]1C1C(=O)C=C3[C@@]4(C)C=C(C#N)C(=O)C(C)(C)[C@@H]4CC[C@@]3(C)[C@]1(C)CC2 (stereo partly drawn) [CDDO-EA, (4aS,6aR,6bS,8aR,12aS,14bS)-11-cyano-N-ethyl-2,2,6a,6b,9,9,12a-heptamethyl-10,14-dioxo-1,3,4,5,6,6a,6b, 7,8,8a,9,10,12a, 14,14a, 14b-hexadecahydropicene-4a (2H)-carboxamide]",Grams of Chow per Week Consumed by Animals,"[1]; HFD + CDDO-EA (0.04%), week 1",18.0 ± 0.9 Grams of Chow per Week
same,Grams of Chow per Week Consumed by Animals,"[1]; HFD + CDDO-EA (0.04%), week 2",18.4 ± 1.0 Grams of Chow per Week
same,Grams of Chow per Week Consumed by Animals,"[1]; HFD + CDDO-EA (0.04%), week 3",16.8 ± 0.5 Grams of Chow per Week
same,Grams of Chow per Week Consumed by Animals,"[1]; HFD + CDDO-EA (0.04%), week 4",15.8 ± 0.4* * Grams of Chow per Week
same,Grams of Chow per Week Consumed by Animals,"[1]; HFD + CDDO-EA (0.04%), week 5",16.2 ± 0.5 Grams of Chow per Week
same,Grams of Chow per Week Consumed by Animals,"[1]; HFD + CDDO-EA (0.04%), week 6",16.6 ± 0.4 Grams of Chow per Week
same,energy intake (caloric food consumption),[1]; HFD chow mixed with CDDO-EA,decreased energy intake; also recorded: inhibits energy intake
same,average weekly chow consumption,"[1]; HFD+CDDO-EA group, all six weeks",17 g
same,Grams of Chow per Week Consumed by Animals,"[1]; LFD + CDDO-EA (0.04%), week 1",19.2 ± 0.6 Grams of Chow per Week
same,Grams of Chow per Week Consumed by Animals,"[1]; LFD + CDDO-EA (0.04%), week 2",21.5 ± 0.6 Grams of Chow per Week
same,Grams of Chow per Week Consumed by Animals,"[1]; LFD + CDDO-EA (0.04%), week 3",21.1 ± 0.7 Grams of Chow per Week
same,Grams of Chow per Week Consumed by Animals,"[1]; LFD + CDDO-EA (0.04%), week 4",20.0 ± 0.2 Grams of Chow per Week
same,Grams of Chow per Week Consumed by Animals,"[1]; LFD + CDDO-EA (0.04%), week 5",21.3 ± 0.3 Grams of Chow per Week
same,Grams of Chow per Week Consumed by Animals,"[1]; LFD + CDDO-EA (0.04%), week 6",19.8 ± 0.4 Grams of Chow per Week
same,more food consumed by HFD-fed animals than by HFD plus CDDO-EA-fed animals,[1]; week 3,20%
same,more food consumed by HFD-alone animals than by HFD + CDDO-EA animals,[1]; week one,at least 10%
same,"LPS-induced IL-1β, IL-6 and MCP-1 production",THP-1 macrophages; 500 nM CDDO-EA 1 hour then 100 ng/ml LPS 6 hours,"primarily inhibited LPS-induced IL-1B, IL-6 and MCP-1 production; also recorded: blocks LPS induced IL-1β, IL-6, and MCP-1 secretion"
same,IFN-γ,"THP-1 macrophages; 500 nM CDDO-EA alone, no LPS",24.78 ± 20.55 pg/mL
same,IL-1β,"THP-1 macrophages; 500 nM CDDO-EA alone, no LPS",2.19 ± 1.49 pg/mL
same,IL-4,"THP-1 macrophages; 500 nM CDDO-EA alone, no LPS",0.21 ± 0.12 pg/mL
same,IL-6,"THP-1 macrophages; 500 nM CDDO-EA alone, no LPS",0.12 ± 0.02 pg/mL
same,IL-8,"THP-1 macrophages; 500 nM CDDO-EA alone, no LPS",6339.67 ± 1535.18 pg/mL
same,IL-17,"THP-1 macrophages; 500 nM CDDO-EA alone, no LPS",22.72 ± 9.47 pg/mL
same,MCP-1,"THP-1 macrophages; 500 nM CDDO-EA alone, no LPS",2.11 ± 1.35 pg/mL
same,MIP-1β,"THP-1 macrophages; 500 nM CDDO-EA alone, no LPS",3763.83 ± 1229.25 pg/mL
same,TNF-α,"THP-1 macrophages; 500 nM CDDO-EA alone, no LPS",128.33 ± 38.63 pg/mL
same,G-CSF,THP-1 macrophages; [4],10.72 ± 4.71 pg/mL
same,IFN-γ,THP-1 macrophages; [4],114.38 ± 5.43 pg/mL
same,IL-1β,THP-1 macrophages; [4],64.65 ± 17.12 pg/mL
same,IL-2,THP-1 macrophages; [4],4.09 ± 1.51 pg/mL
same,IL-4,THP-1 macrophages; [4],1.55 ± 0.18 pg/mL
same,IL-6,THP-1 macrophages; [4],12.67 ± 5.50 pg/mL
same,IL-8,THP-1 macrophages; [4],9691.33 ± 1268.42 pg/mL
same,IL-12,THP-1 macrophages; [4],2.00 ± 1.00 pg/mL
same,IL-17,THP-1 macrophages; [4],40.16 ± 8.13 pg/mL
same,MCP-1,THP-1 macrophages; [4],11.05 ± 1.65 pg/mL
same,MIP-1β,THP-1 macrophages; [4],11212.50 ± 877.01 pg/mL
same,TNF-α,THP-1 macrophages; [4],8237.33 ± 1137.80 pg/mL
same,LPS-induced production of MCP-1,MCP-1,significantly suppresses the LPS-induced production
same,food intake,[2],prevented an increase in food intake; also recorded: decreases food intake
same,fasting glucose,"[3]; day 42, HFD+CDDO-EA compared to HFD ad lib",significant lowered fasting glucose levels; also recorded: lowers fasting glucose levels
same,fasting glucose,"[3]; day 42, HFD+CDDO-EA compared to HFD pair-fed",close to significant effect on fasting glucose
same,glucose tolerance (OGTT Area Under the Curve),"[3]; week 6, HFD+CDDO-EA compared to HFD ad lib",significant improvement in glucose tolerance
same,glucose tolerance (OGTT Area Under the Curve),"[3]; week 6, HFD+CDDO-EA compared to HFD pair-fed",slight improvement in glucose tolerance
